Test results from patent US9951055B2, “Thiazole-based inhibitors of scavenger receptor BI” (THE BROAD INSTITUTE, INC., priority 2012, dated 2018).
pIC50: −log10 of the molar value. Where two headings read alike, the source gives them in different places.

What was measured:
[1] = biological target: T1, murine SR-BI (Mus musculus, UniProt Q61009); assay: DiI-HDL uptake assay (primary assay); type: cell-based
T1 construct: expressed in transfected cells; host or cells: ldlA[mSR-BI]; (CHO ldlA7 derivative lacking the LDL receptor)
T1 sequence (Q61009 1-509): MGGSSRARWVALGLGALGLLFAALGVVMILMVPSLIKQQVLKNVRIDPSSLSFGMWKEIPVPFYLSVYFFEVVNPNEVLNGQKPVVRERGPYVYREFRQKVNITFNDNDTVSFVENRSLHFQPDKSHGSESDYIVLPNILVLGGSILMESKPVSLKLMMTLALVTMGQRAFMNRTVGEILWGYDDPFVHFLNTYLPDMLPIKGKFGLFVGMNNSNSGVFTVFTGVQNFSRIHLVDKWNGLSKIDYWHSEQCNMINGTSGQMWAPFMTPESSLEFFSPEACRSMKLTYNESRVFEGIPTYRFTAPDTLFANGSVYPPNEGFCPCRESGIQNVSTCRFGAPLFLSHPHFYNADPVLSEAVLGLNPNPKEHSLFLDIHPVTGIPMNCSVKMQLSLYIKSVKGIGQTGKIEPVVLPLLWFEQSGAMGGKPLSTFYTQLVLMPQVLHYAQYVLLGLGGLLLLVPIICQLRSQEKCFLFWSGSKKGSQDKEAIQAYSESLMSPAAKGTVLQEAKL
Source text: The following cell lines were used in this study: • ldlA[mSR-BI] is a Chinese hamster ovary (CHO) cell line that overexpresses murine SR-BI, isoform 1 (NP_058021) and was obtained from the Assay Provider (Krieger Laboratory). This cell line was used for the primary assay and several secondary assays. […] This cell line was obtained from the Assay Provider. Assays DiI-HDL Uptake Assay (Primary Assay AID Nos. 488896, 493194, 540354 588392, 588553, 588548, 588754, 588828, 588833)
ldlA[mSR-BI]cells were plated into 384-well plates at 30 μl per well and incubated overnight. As a measurable surrogate for cholesterol uptake, human HDL particles were treated with the lipophilic fluorescent dye DiI and exposed to ldlA[mSR-BI]cells in lipoprotein-free media (Ham's F12/0.5% fatty acid-free Bovine Serum Albumin (BSA)/25 mM HEPES pH 7.4 plus 10 μg protein/ml DiI-HDL). Cells took up the DiI via SR-BI over 3 hours in the presence of compound. After significant uptake of the DiI, the cells became fluorescent. The level of fluorescence correlates with the amount of DiI uptake and can be measured with a standard plate reader (here a PerkinElmer EnVision plate reader was used). The uptake of lipid (represented by DiI) was inhibited by the positive control compound BLT-1 or with an excess of HDL untreated with DiI. Primary HTS data were analyzed in Genedata Screener Assay Analyzer, and were normalized against DMSO and the positive control (1 μM BLT-1). For the HTS, the average of two replicates was used to rank order activity and to choose compounds for retests. For dose studies, percent (%) activity was determined for each concentration and the concentration response curves (CRCs) were generated with Genedata Condeseo.
To identify novel inhibitors, SR-BI-mediated lipid uptake was measured in an engineered cell line that minimized potential uptake by other mechanisms, including via the LDL receptor (1). ldlA[mSR-BI]cells overexpress murine isoform 1 and selectively take up HDL lipid at similar levels as “has been reported for cultured mouse adrenal cells, perfused organs, and liver, adrenal gland and ovary in vivo” (1). This primary cell-based assay was used in a pilot screen that identified BLTs 1 through 5 (12). The assay was slightly modified from the original protocol of Nieland et al. to increase throughput and to ease automation procedures.

[2] = biological target: T1, murine SR-BI; assay: DiI-HDL uptake assay with washout; type: cell-based
Procedure: DiI-HDL Uptake Assay with Washout (SA 5: AID No. 588831)
This is a modification of the primary assay where cells are treated with compound prior to the addition of DiI-HDL but no compound is present during the DiI-HDL treatment period. ldlA[mSR-BI]cells were plated into 384-well plates at 30 μl per well and incubated overnight. Cells were treated with compound for 3 hours, then media were removed and the cells were washed with PBS before fresh lipoprotein-free media (Ham's F12/0.5% fatty acid-free Bovine Serum Albumin [BSA]/25 mM HEPES pH 7.4) was added with […] DiI-HDL. Cells took up the DiI via SR-BI over 3 hours in the absence of compound. After significant uptake of the DiI, the cells became fluorescent. The level of fluorescence correlates with the amount of DiI uptake and can be measured with a standard plate reader. The uptake of lipid (represented by DiI) was inhibited by the compound BLT-1.

SMILES	reduction in signal (DiI-HDL uptake) ([1]; 1 μM, positive control in primary HTS)	reversibility of inhibition [2]	higher potency than ITX-5061 [1]	improved potency over the original hit [1]	selectivity [1]	pIC50 ([1]; read-out: IC50, DiI-HDL uptake)	inhibition after washout at the IC50 concentration [2]	pIC50 ([2]; cells pre-treated, washed with PBS, DiI-HDL without compound, read-out: IC50 after washout)	reversibility of inhibition ([2]; listed as ML278)	reversibility of inhibition ([2]; listed as Probe 278)
CCCCCCC1CCCC1=NNC(N)=S (stereo not shown) [BLT-1, reference compound]	> 2.2 fold	nonreversible covalent modifier of SR-BI	–	–	–	–	–	–	–	–
COCC(=O)N1CCc2cc(-c3csc(NC(=O)c4cc(OC)cc(OC)c4)n3)ccc21 [Compound 137, 3,5-Dimethoxy-N-(4-(1-(2-methoxyacetyl)indolin-5-yl)thiazol-2-yl)benzamide]	–	–	approximately 15 fold	> 20 fold	greater than 1000	8.70	no inhibition	6.52	reversible inhibitor of HDL uptake	reversible inhibitor
